For this assay, the target named is catalytic subunit of the cAMP-dependent protein kinase A (PKA-C) (Mus musculus, UniProt P05132). The assay is described as follows: isothermal titration calorimetry. It counts as binding. In general terms: In ITC the heat of successive injections is recorded.

One compound from publication PMC4775281 (Structure (London, England : 1993), 2016) can be followed below.

Each structure is given as a SMILES string.

One may read the Kd as the constant that tells how readily two partners part at equilibrium. A higher Kd goes with a looser complex. `Nc1ncnc2c1ncn2[C@@H]1O[C@H](COP(=O)(O)O)[C@@H](O)[C@H]1O` [AMP] yielded a Kd of about 250 µM.
